# Data as given in patent publication US20240148743A1, “USES OF MELANOCORTIN-4 RECEPTOR AGONIST” (LG CHEM, LTD., priority 2021, published 2024).
# System: db/db mice
# Assay: db/db mouse model experiment (leptin receptor-deficient genetic obesity model, 45 kcal % high-fat diet)
# Format: in vivo
# Description: To confirm anti-obesity efficacy, N-((3S,5S)-1-((3S,4R)-1-(tert-butyl)-4-(4-chlorophenyl)pyrrolidine-3-carbonyl)-5- (morpholine-4 -carbonyl)pyrrolidin-3-yl)-N-((1s ,4R)-4-methylcyclohexyl)isobutyramide hydrochloride (hereinafter referred to as “Test Compound”) obtained in the Preparation Example was administered repeatedly for 4 weeks while feeding 45 kcal % high-fat diet (diet with 45 kcal % fat) to db/db mice which is a genetic obesity mouse model in which a mutation in the leptin receptor associated with the MC4R pathway occurred. The weight gain inhibitory effect was confirmed by measuring the body weight during the administration period, and the body fat mass reduction effect was confirmed by measuring the total body fat mass after repeated administration for 4 weeks. […] The results are represented in FIG. 1.
# [1] = body fat analysis after repeated administration for 4 weeks, compared to the negative control group
# [2] = db/db mice on 45 kcal % high-fat diet, repeated administration for 4 weeks, compared to the negative control group
structure (smiles),measurement,setting,value
"CC(C)C(=O)N([C@H]1C[C@@H](C(=O)N2CCOCC2)N(C(=O)[C@@H]2CN(C(C)(C)C)C[C@H]2c2ccc(Cl)cc2)C1)[C@H]1CC[C@@H](C)CC1.Cl [Test Compound, N-((3S,5S)-1-((3S,4R)-1-(tert-butyl)-4-(4-chlorophenyl)pyrrolidine-3-carbonyl)-5-(morpholine-4-carbonyl)pyrrolidin-3-yl)-N-((1s ,4R)-4-methylcyclohexyl)isobutyramide hydrochloride]",fat mass,[1],significantly decreased
same,fat-free mass,[1],no difference
same,body weight,[2],significantly reduced
same,weight gain rate,[2],significantly decreased
same,weight loss effect,"leptin receptor-deficient mouse model (db/db), FIG. 1",significant weight loss effect
